Broadly, the KD is the free concentration of one partner at which half of the binding sites on the other are occupied at equilibrium, for simple one-to-one binding. High values mean weaker binding, low ones tighter binding. As a reminder, the ΔTm is the change in melting temperature against a reference sample.

In assay [1] the test system is dsDNA (control duplex DNA) (DNA, duplex) CAAAAATTTTTGCAAAAATTTTTG
As to the kind of experiment: fluorescence titration (ligand fluorescence, Hill fit). As to conditions: K+ (100 mM Tris-KCl), pH 7.4, 25 °C, 1 μM ligand titrated with DNA.

Assay [2] deals with c-MYC G-quadruplex DNA, dual labelled (FRET) (DNA, G4) GGGGAGGGTGGGGAGGGTGGGG
As to the kind of experiment: FRET melting. Particulars: K+ (60 mM potassium cacodylate), pH 7.4, 100 nM DNA, 1 μM compound.

Assay [3] deals with c-MYC G-quadruplex DNA (DNA, G4) GGGGAGGGTGGGGAGGGTGGGG
As to the kind of experiment: fluorescence titration (ligand fluorescence, Hill fit). Particulars: K+ (100 mM Tris-KCl), pH 7.4, 25 °C, 1 μM ligand titrated with DNA.

The test system of assay [4] is dsDNA, dual labelled (FRET) (DNA, duplex) CAAAAATTTTTGCAAAAATTTTTG
The experiment in a line: FRET melting. Particulars: K+ (60 mM potassium cacodylate), pH 7.4, 100 nM DNA, 1 μM compound.

Structures are written as SMILES. Where only a bound is given, the exact number is not on record here.

Turning to `CN(C)CCCNC(=O)c1ccc(-n2c3ccccc3c3cc(-c4cn(-c5ccc(N)cc5)nn4)ccc32)cc1`, the KD in assay [1] is > 25000 nM; in assay [3], 510 ± 50 nM. In addition, the ΔTm is 11.14±0.28 °C in assay [2] and 1.61±0.12 °C in assay [4].

`CN(C)CCCNC(=O)c1ccc(-n2c3ccccc3c3cc(-c4cn(CCCN(C)C)nn4)ccc32)cc1`: the KD in assay [1] is 880 ± 20 nM; in assay [3] it was 1130 ± 30 nM. In addition, the figures for the ΔTm in assay [2] and in assay [4] were 8.17±0.41 °C and 8.41±0.21 °C, respectively.

Regarding `CN(C)CCCNC(=O)c1ccc(-n2cc(-c3ccc4c(c3)c3ccccc3n4-c3ccc(C(=O)NCCCN(C)C)cc3)nn2)cc1`, the KD in assay [1] was > 30000 nM; in assay [3], 170 ± 10 nM. Further, the ΔTm in assay [2] was found to be 19.3±0.96 °C; in assay [4] it was 0.86±0.04 °C.

For the origin of these results see paper PMC5519986 (2017).
